What all share (type): in vivo
Experiment [1] concerns Yellow Fever Mosquito (Aedes aegypti). In words: Bioassay on Yellow Fever Mosquito (YFM) larvae, 96-well plate. The following applies: Table ABC. How it is done: Example C: Bioassays on Yellow Fever Mosquito (Aedes Aegypti, AEDSAE) (“YFM”)
Certain molecules disclosed in this document were tested against YFM using procedures described in the following paragraph. In the reporting of the results, the “GPA & YFM Rating Table” was used (See Table Section).
Master plates containing 400 μg of a molecule dissolved in 100 μL of dimethyl sulfoxide (DMSO) (equivalent to a 4000 ppm solution) are used. A master plate of assembled molecules contains 15 μL per well. To this plate, 135 μL of a 90:10 water:acetone mixture is added to each well. A robot (Biomek® NXP Laboratory Automation Workstation) is programmed to dispense 15 μL aspirations from the master plate into an empty 96-well shallow plate (“daughter” plate). There are 6 reps (“daughter” plates) created per master. The created daughter plates are then immediately infested with YFM larvae.
The day before plates are to be treated, mosquito eggs are placed in Millipore water containing liver powder to begin hatching (4 g. into 400 mL). After the daughter plates are created using the robot, they are infested with 220 μL of the liver powder/larval mosquito mixture (about 1 day-old larvae). After plates are infested with mosquito larvae, a non-evaporative lid is used to cover the plate to reduce drying. Plates are held at room temperature for 3 days prior to grading. After 3 days, each well is observed and scored based on mortality. The results are indicated in the table entitled “Table ABC: Biological Results” (See Table Section).

Experiment [2] relates to Beet Armyworm (Spodoptera exigua). In words: Bioassay on Beet Armyworm (BAW), 128-well diet tray assay. The following applies: Beet Armyworm, Table ABC, read-out: BAW rating. Put shortly: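 Percent mortality, averaged over eight wells, was scored after five to seven days at 25° C under 14:10 light-dark. Each well's diet carried 50 μg/cm^2 of test molecule applied in acetone-water (90:10) and dried before one to five second-instar larvae were added.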

Experiment [3] concerns Cabbage Looper (Trichoplusia ni). In words: Bioassay on Cabbage Looper (CL), 128-well diet tray assay. Conditions: Cabbage Looper, Table ABC, read-out: CL rating. Put shortly: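 Mortality after five to seven days at 25° C (14:10 photoperiod), averaged over eight wells per compound. Diet in each well carried 50 μg/cm^2 of dried test molecule and received one to five second-instar larvae.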

Structures are written as SMILES.

As for `C[C@@H](NC(=O)c1ccc(/C(F)=C/C(c2ccc(Cl)c(F)c2)C(F)(F)F)cc1C(F)(F)F)C(=O)N(C)CC(F)(F)F` (stereo partly drawn) [PF20, 4-((Z)-3-(4-Chloro-3-fluorophenyl)-1,4,4,4-tetrafluorobut-1-en-1-yl)-N—((R)-1-(methyl(2,2,2-trifluoroethyl)amino)-1-oxopropan-2-yl)-2-(trifluoromethyl)benzamide], the YFM rating result in experiment [1] is listed as “B (More than 0-Less than 80)”. The pest or weed control at 50 µg/cm2 in experiment [2] and in experiment [3] was 50 to 100% each time.

As to `C[C@@H](NC(=O)c1ccc(/C(F)=C/C(c2ccc(Cl)c(Cl)c2)C(F)(F)F)cc1C(F)(F)F)C(=O)N(C)CC(F)(F)F` (stereo partly drawn) [F73, 4-((Z)-3-(3,4-Dichlorophenyl)-1,4,4,4-tetrafluorobut-1-en-1-yl)-N—((R)-1-(methyl(2,2,2-trifluoroethyl)amino)-1-oxopropan-2-yl)-2-(trifluoromethyl)benzamide], in experiment [1], the YFM rating entry is listed as “A (80-100)”. The pest or weed control at 50 µg/cm2 in experiment [2] and in experiment [3] was 50 to 100% each time.

Consider `Cc1cc(C(/C=C(\F)c2ccc(C(=O)NC3(C(=O)N(C)CC(F)(F)F)CC3)c(C(F)(F)F)c2)C(F)(F)F)cc(C)c1Cl` (stereo not drawn) [F119, (Z)-4-(3-(4-Chloro-3,5-dimethylphenyl)-1,4,4,4-tetrafluorobut-1-en-1-yl)-N-(1-(methyl(2,2,2-trifluoroethyl)carbamoyl)cyclopropyl)-2-(trifluoromethyl)benzamide], for which the YFM rating entry in experiment [1] is given as “B (More than 0-Less than 80)”. Also, the pest or weed control at 50 µg/cm2 in experiment [2] and in experiment [3] was 50 to 100% in each case.

Consider `O=C(NC1(C(=O)NCC(F)(F)F)CC1)c1ccc(/C(F)=C/C(c2ccc(Cl)c(F)c2)C(F)(F)F)cc1C(F)(F)F` (stereo not drawn) [F136, (Z)-4-(3-(4-Chloro-3-fluorophenyl)-1,4,4,4-tetrafluorobut-1-en-1-yl)-N-(1-((2,2,2-trifluoroethyl)carbamoyl)cyclopropyl)-2-(trifluoromethyl)benzamide], for which the YFM rating result in experiment [1] was “B (More than 0-Less than 80)”. Also, the pest or weed control at 50 µg/cm2 in experiment [2] and in experiment [3] was 50 to 100% in each case.

With `C[C@@H](NC(=O)c1ccc(/C(F)=C/C(c2cc(Cl)cc(Cl)c2)C(F)(F)F)cc1C(F)(F)F)C(=O)N(C)CC(F)(F)F` (stereo partly drawn) [F72, 4-((Z)-3-(3,5-Dichlorophenyl)-1,4,4,4-tetrafluorobut-1-en-1-yl)-N—((R)-1-(methyl(2,2,2-trifluoroethyl)amino)-1-oxopropan-2-yl)-2-(trifluoromethyl)benzamide], the YFM rating entry in experiment [1] is recorded as “A (80-100)”. The pest or weed control at 50 µg/cm2 in experiment [2] and in experiment [3] was 50 to 100% each time.

On to `Cc1cc(C(/C=C(\F)c2ccc(C(=O)NCC(=O)N(C)CC(F)(F)F)c(C(F)(F)F)c2)C(F)(F)F)cc(C)c1Cl` (stereo not drawn) [F103, (Z)-4-(3-(4-Chloro-3,5-dimethylphenyl)-1,4,4,4-tetrafluorobut-1-en-1-yl)-N-(2-(methyl(2,2,2-trifluoroethyl)amino)-2-oxoethyl)-2-(trifluoromethyl)benzamide], for which the YFM rating result in experiment [1] is “B (More than 0-Less than 80)”. For the same compound, the pest or weed control at 50 µg/cm2 in experiment [2] and in experiment [3] was 50 to 100% each time.

`O=C(NC1(C(=O)NCC(F)(F)F)CC1)c1ccc(/C(F)=C/C(c2ccc(Cl)c(Cl)c2)C(F)(F)F)cc1C(F)(F)F` (stereo not drawn) [F41, (Z)-4-(3-(3,4-Dichlorophenyl)-1,4,4,4-tetrafluorobut-1-en-1-yl)-N-(1-((2,2,2-trifluoroethyl)carbamoyl)cyclopropyl)-2-(trifluoromethyl)benzamide]: in experiment [1], the YFM rating result is reported as “A (80-100)”. Besides, the pest or weed control at 50 µg/cm2 in experiment [2] and in experiment [3] was 50 to 100% in each case.

In the case of `CN(CC(F)(F)F)C(=O)C1(NC(=O)c2ccc(/C(F)=C/C(c3ccc(Br)c(Br)c3)C(F)(F)F)cc2C(F)(F)F)CC1` (stereo not drawn) [F130, (Z)-4-(3-(3,4-Dibromophenyl)-1,4,4,4-tetrafluorobut-1-en-1-yl)-N-(1-(methyl(2,2,2-trifluoroethyl)carbamoyl)cyclopropyl)-2-(trifluoromethyl)benzamide], the YFM rating result in experiment [1] is “A (80-100)”. Moreover, the pest or weed control at 50 µg/cm2 in experiment [2] and in experiment [3] was 50 to 100% in each case.

`O=C(CNC(=O)c1ccc(/C(F)=C/C(c2cc(Br)c(Cl)c(Br)c2)C(F)(F)F)cc1C(F)(F)F)NCC(F)(F)F` (stereo not drawn) [F46, (Z)-4-(3-(3,5-Dibromo-4-chlorophenyl)-1,4,4,4-tetrafluorobut-1-en-1-yl)-N-(2-oxo-2-((2,2,2-trifluoroethyl)amino)ethyl)-2-(trifluoromethyl)benzamide]: in experiment [1], the YFM rating entry was “A (80-100)”. In addition, the pest or weed control at 50 µg/cm2 in experiment [2] and in experiment [3] was 50 to 100% in each case.

On to `CN(CC(F)(F)F)C(=O)C1(NC(=O)c2ccc(/C(F)=C/C(c3ccc(Cl)c(Br)c3)C(F)(F)F)cc2C(F)(F)F)CC1` (stereo not drawn) [PF39, (Z)-4-(3-(3-Bromo-4-chlorophenyl)-1,4,4,4-tetrafluorobut-1-en-1-yl)-N-(1-(methyl(2,2,2-trifluoroethyl)carbamoyl)cyclopropyl)-2-(trifluoromethyl)benzamide], for which, in experiment [1], the YFM rating entry is “B (More than 0-Less than 80)”. In addition, the pest or weed control at 50 µg/cm2 in experiment [2] and in experiment [3] was 50 to 100% in each case.

Take `O=C(NC1(C(=O)NCC(F)(F)F)CC1)c1ccc(/C(F)=C/C(c2cc(Cl)c(F)c(Cl)c2)C(F)(F)F)cc1C(F)(F)F` (stereo not drawn) [F37, (Z)-4-(3-(3,5-Dichloro-4-fluorophenyl)-1,4,4,4-tetrafluorobut-1-en-1-yl)-N-(1-((2,2,2-trifluoroethyl)carbamoyl)cyclopropyl)-2-(trifluoromethyl)benzamide]: in experiment [1], the YFM rating entry was “A (80-100)”. The pest or weed control at 50 µg/cm2 in experiment [2] and in experiment [3] was 50 to 100% in each case.

In the case of `O=C(CNC(=O)c1ccc(/C(F)=C/C(c2cc(Cl)cc(Br)c2)C(F)(F)F)cc1C(F)(F)F)NCC(F)(F)F` (stereo not drawn) [F122, (Z)-4-(3-(3-Bromo-5-chlorophenyl)-1,4,4,4-tetrafluorobut-1-en-1-yl)-N-(2-oxo-2-((2,2,2-trifluoroethyl)amino)ethyl)-2-(trifluoromethyl)benzamide], in experiment [1], the YFM rating result is on record as “B (More than 0-Less than 80)”. The pest or weed control at 50 µg/cm2 in experiment [2] and in experiment [3] was 50 to 100% each time.

With `CN(CC(F)(F)F)C(=O)CNC(=O)c1ccc(/C(F)=C/C(c2cc(Br)c(Cl)c(Br)c2)C(F)(F)F)cc1C(F)(F)F` (stereo not drawn) [F77, (Z)-4-(3-(3,5-Dibromo-4-chlorophenyl)-1,4,4,4-tetrafluorobut-1-en-1-yl)-N-(2-(methyl(2,2,2-trifluoroethyl)amino)-2-oxoethyl)-2-(trifluoromethyl)benzamide], the YFM rating result in experiment [1] is “A (80-100)”. Moreover, the pest or weed control at 50 µg/cm2 in experiment [2] and in experiment [3] was 50 to 100% throughout.

On to `CN(CC(F)(F)F)C(=O)C1(NC(=O)c2ccc(/C(F)=C/C(c3ccc(F)c(Cl)c3)C(F)(F)F)cc2C(F)(F)F)CC1` (stereo not drawn) [PF10], for which, in experiment [1], the YFM rating result is listed as “A (80-100)”. Further, the pest or weed control at 50 µg/cm2 in experiment [2] and in experiment [3] was 50 to 100% throughout.

The record behind these values is US10251394B2, “Molecules having pesticidal utility, and intermediates, compositions, and processes, related thereto” (Dow AgroSciences LLC, priority 2016, dated 2019).
